Test results reported in patent publication US12227500B2, “Substituted pyrrolo[2,3-b]pyridines for suppressing toxic endoplasmic reticulum stress” (THE TRUSTEES OF COLUMBIA UNIVERSITY IN THE CITY OF NEW YORK, priority 2018, dated 2025).
Read-outs that look alike come from different tables or passages of the source.

Assays:
Assay in all cases: Radiolabeled ATP kinase assay, panel of 60 kinases (Table S5)
Type in all cases: biochemical
[1] = target: T1, panel of 60 human kinases (Homo sapiens, UniProt O15264); conditions: P38d/MAPK13; 0.1 μM; 10 μM ATP; read-out: % Enzyme Activity (relative to DSMO controls)
T1 construct: purchased Reaction Biology Corp
T1 sequence (O15264 1-365): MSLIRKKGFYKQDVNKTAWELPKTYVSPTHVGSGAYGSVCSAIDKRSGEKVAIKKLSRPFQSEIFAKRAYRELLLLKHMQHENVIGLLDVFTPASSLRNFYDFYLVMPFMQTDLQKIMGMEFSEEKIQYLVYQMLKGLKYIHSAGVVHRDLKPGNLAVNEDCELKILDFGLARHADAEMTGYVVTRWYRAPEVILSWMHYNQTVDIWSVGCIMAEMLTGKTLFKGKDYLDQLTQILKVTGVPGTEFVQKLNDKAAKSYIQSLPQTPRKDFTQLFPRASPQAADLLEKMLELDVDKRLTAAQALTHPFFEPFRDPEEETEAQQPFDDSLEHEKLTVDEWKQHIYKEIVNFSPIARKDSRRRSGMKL
In short: (§1)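 Cell-free radiolabeled-ATP kinase assays across a panel of 60 kinases; each compound tested at 0.1 μM and 0.5 μM for inhibition.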

[2] = target: T2, panel of 60 human kinases (Homo sapiens, UniProt P24941); conditions: 0.1 μM, 10 μM ATP, read-out: % Enzyme Activity (relative to DSMO controls)
T2 construct: purchased Reaction Biology Corp
In short: as §1

[3] = target: T3, panel of 60 human kinases (Homo sapiens, UniProt Q7L7X3); conditions: TAOK1; 0.1 μM; 10 μM ATP; read-out: % Enzyme Activity (relative to DSMO controls)
T3 construct: purchased Reaction Biology Corp
T3 sequence (Q7L7X3 1-1001): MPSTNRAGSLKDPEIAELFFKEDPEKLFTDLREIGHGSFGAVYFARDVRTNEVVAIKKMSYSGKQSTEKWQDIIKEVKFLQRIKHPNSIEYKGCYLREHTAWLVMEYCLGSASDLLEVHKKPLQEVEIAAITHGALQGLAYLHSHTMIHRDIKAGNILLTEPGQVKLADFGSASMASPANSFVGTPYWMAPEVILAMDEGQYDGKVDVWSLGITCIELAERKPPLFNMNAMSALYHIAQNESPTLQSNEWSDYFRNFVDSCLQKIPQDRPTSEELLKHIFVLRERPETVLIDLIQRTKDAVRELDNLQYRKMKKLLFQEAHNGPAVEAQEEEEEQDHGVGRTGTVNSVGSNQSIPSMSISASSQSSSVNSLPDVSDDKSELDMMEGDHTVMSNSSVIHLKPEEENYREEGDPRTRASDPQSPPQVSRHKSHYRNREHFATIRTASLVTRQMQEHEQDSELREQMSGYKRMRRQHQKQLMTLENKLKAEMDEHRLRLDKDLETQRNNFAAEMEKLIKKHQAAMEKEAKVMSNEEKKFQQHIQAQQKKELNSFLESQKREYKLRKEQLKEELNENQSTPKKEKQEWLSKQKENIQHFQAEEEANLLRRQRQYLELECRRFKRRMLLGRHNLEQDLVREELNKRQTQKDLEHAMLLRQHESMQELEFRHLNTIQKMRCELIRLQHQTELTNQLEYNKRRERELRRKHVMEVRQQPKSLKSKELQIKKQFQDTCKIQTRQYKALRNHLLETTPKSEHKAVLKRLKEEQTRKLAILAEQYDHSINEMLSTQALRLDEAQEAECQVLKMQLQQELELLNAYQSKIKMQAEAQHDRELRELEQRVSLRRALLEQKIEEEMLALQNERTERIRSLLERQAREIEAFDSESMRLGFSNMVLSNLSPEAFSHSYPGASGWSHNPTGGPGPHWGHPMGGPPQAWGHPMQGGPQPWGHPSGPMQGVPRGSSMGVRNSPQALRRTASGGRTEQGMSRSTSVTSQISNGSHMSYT
In short: as §1

[4] = target: T4, panel of 60 human kinases (Homo sapiens, UniProt P49760); conditions: CLK2; 0.1 μM; 10 μM ATP; read-out: % Enzyme Activity (relative to DSMO controls)
T4 construct: purchased Reaction Biology Corp
In short: as §1

[5] = target: T5, panel of 60 human kinases (Homo sapiens, UniProt P49840); conditions: GSK3a; 0.1 μM; 10 μM ATP; read-out: % Enzyme Activity (relative to DSMO controls)
T5 construct: purchased Reaction Biology Corp
In short: as §1

[6] = target: T6, panel of 60 human kinases (Homo sapiens, UniProt O60285); conditions: ARK5/NUAK1; 0.1 μM; 10 μM ATP; read-out: % Enzyme Activity (relative to DSMO controls)
T6 construct: purchased Reaction Biology Corp
T6 sequence (O60285 1-661): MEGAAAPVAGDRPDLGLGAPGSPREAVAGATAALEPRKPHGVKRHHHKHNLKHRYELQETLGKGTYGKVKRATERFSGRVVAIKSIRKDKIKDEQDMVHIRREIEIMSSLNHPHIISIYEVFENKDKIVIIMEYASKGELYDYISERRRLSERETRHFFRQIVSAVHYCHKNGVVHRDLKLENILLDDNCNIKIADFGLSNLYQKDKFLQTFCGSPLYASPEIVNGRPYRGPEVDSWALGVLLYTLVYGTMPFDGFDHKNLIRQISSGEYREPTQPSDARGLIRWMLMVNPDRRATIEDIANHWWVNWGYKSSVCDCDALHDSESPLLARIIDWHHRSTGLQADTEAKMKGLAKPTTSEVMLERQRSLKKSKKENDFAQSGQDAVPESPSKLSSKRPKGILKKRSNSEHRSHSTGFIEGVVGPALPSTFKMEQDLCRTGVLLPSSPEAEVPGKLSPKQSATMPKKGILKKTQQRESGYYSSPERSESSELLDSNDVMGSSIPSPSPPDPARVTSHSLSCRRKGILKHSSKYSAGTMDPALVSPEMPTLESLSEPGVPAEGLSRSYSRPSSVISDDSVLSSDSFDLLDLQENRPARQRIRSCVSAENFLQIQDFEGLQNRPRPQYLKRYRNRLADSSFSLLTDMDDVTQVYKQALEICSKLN
In short: as §1

[7] = target: T7, panel of 60 human kinases (Homo sapiens, UniProt Q08345); conditions: DDR1; 0.1 μM; 10 μM ATP; read-out: % Enzyme Activity (relative to DSMO controls)
T7 construct: purchased Reaction Biology Corp
In short: as §1

[8] = target: T8, panel of 60 human kinases (Homo sapiens, UniProt Q9HAZ1); conditions: CLK4; 0.1 μM; 10 μM ATP; read-out: % Enzyme Activity (relative to DSMO controls)
T8 construct: purchased Reaction Biology Corp
In short: as §1

T4 sequence (P49760 whole entry): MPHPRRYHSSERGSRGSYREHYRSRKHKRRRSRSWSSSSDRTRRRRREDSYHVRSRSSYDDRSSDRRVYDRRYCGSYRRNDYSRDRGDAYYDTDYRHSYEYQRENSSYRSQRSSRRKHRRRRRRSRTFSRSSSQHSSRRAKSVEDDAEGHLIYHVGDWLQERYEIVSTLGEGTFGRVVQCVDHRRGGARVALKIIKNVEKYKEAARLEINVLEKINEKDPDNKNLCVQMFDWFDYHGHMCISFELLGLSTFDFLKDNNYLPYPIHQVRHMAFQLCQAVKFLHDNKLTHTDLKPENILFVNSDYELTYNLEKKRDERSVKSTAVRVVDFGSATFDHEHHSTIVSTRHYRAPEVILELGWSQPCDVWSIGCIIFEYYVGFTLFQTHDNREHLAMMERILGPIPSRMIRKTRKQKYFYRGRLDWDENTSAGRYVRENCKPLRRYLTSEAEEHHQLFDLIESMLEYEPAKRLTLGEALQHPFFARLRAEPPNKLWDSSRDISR
T8 sequence (Q9HAZ1 whole entry): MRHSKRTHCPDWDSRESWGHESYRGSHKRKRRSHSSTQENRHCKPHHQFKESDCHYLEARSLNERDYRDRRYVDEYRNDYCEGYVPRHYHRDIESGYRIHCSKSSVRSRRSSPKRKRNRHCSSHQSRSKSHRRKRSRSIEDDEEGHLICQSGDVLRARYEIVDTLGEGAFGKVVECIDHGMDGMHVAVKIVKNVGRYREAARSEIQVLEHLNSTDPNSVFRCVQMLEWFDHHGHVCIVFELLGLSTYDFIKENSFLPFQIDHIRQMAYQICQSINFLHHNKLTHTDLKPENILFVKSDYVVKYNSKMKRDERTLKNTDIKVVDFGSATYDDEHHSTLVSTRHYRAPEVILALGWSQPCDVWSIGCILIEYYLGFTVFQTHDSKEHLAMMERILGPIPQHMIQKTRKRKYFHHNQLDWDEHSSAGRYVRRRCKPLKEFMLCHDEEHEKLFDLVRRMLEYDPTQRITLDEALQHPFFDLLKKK
T5 sequence (P49840 whole entry): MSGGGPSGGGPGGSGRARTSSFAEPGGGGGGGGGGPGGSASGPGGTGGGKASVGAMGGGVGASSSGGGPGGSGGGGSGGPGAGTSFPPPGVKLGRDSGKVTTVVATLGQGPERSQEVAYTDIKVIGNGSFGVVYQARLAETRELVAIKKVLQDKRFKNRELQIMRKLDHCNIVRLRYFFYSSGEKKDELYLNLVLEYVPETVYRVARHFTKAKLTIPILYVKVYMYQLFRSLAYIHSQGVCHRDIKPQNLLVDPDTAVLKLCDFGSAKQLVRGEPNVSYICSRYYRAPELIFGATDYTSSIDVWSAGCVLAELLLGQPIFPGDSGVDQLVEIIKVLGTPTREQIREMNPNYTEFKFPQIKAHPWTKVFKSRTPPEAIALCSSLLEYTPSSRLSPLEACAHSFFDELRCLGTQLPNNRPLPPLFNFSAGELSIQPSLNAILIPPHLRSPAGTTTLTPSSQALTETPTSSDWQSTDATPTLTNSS
T7 sequence (Q08345 19-913): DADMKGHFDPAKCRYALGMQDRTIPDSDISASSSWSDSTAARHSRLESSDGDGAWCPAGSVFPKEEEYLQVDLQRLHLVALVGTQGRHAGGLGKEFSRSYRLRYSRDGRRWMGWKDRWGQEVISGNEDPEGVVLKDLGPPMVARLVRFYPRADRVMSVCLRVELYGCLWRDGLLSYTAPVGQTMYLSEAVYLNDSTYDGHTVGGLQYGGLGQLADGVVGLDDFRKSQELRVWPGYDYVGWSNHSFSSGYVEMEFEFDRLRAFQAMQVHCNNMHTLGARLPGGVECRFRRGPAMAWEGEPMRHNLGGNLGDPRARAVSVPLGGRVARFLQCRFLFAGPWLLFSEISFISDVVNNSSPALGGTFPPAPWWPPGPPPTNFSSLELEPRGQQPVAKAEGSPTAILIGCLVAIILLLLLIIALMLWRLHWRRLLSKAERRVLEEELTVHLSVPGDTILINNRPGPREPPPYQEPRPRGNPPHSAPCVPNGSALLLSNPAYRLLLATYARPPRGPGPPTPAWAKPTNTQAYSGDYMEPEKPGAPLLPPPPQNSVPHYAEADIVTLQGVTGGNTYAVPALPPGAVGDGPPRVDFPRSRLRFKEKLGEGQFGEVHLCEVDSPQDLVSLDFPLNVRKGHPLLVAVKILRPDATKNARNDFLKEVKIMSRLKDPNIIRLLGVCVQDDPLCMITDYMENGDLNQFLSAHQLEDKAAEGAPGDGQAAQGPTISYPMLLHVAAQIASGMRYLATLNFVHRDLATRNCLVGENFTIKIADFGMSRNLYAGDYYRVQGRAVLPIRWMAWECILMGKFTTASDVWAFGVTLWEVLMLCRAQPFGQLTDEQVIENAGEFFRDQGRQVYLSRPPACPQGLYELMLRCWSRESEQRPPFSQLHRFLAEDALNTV

For `CN1CCN(Cc2ccc(-c3cnc4[nH]cc(-c5ccccc5Cl)c4c3)cc2)CC1` [Compound 7as, 3-(2-Chlorophenyl)-5-(4-((4-methylpiperazin-1-yl)methyl)phenyl)-1H-pyrrolo[2,3-b]pyridine], the remaining activity at 0.1 µM [1] was 113%, the remaining activity at 0.1 µM ([2]; CDK2/cyclin A1) was 65% and the remaining activity at 0.1 µM ([2]; CDK2/cyclin A) was 69.5%. It also gave a remaining activity at 0.1 µM ([2]; CDK2/cyclin E) of 88.5%, a remaining activity at 0.1 µM ([2]; CDK2/cyclin O) of 51.2% and a remaining activity at 0.1 µM [3] of 39.3%. For the same molecule, the remaining activity at 0.1 µM [4] was 22.5%, the remaining activity at 0.1 µM [5] was 96% and the remaining activity at 0.1 µM [6] was 4.44%. It also gave a remaining activity at 0.1 µM [7] of 35.6% and a remaining activity at 0.1 µM [8] of 65.7%.
